Test results: patent US11319329B2, “Inhibitors of Bruton's tyrosine kinase and methods of their use” (JANSSEN PHARMACEUTICA NV, priority 2015, dated 2022)

Target: unphosphorylated-BTK kinase domain (UP-BTK), GST-tagged human BTK (389-659aa) (Homo sapiens (Human), UniProt Q06187)
Assay: BTK kinase Lanthascreen binding assay
Settings: for BTK_I_binding pIC50: negative log of the IC50 in molar, 60 minutes incubation
Method: BTK Kinase Lanthascreen Binding Assay:
A BTK kinase lanthascreen binding assay monitors compound binding to unphosphorylated-BTK kinase domain (UP-BTK), by competing with a fluorescent labeled tracer. […] Data were analyzed using Xlfit™ version 5.3 from ID Business Solutions (Guildford), Microsoft Excel add-in. pIC50 refers to the negative log of the IC50 in molar

[1] = unphosphorylated BTK kinase domain, Lanthascreen

unphosphorylated-BTK kinase domain (UP-BTK), GST-tagged human BTK (389-659aa), sequence (Q06187 389-659): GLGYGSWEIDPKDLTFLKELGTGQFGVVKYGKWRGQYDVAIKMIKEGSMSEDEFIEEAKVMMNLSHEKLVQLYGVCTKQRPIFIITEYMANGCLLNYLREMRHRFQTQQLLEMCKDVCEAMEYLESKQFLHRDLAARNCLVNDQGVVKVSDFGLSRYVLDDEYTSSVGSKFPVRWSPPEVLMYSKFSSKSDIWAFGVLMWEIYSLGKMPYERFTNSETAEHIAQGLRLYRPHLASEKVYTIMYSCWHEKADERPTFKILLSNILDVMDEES

Row | Compound | BTK_I_binding pIC50 (50 nM Tracer 236) | other results
1 | C=CC(=O)N[C@H]1CCC[C@H]1NC(=O)c1sc2nccc3c2c1NC(=O)N3c1ccc(Oc2cccnc2)cc1 (relative stereo) [Example 300, N-((1R,2S)-2-Acrylamidocyclopentyl)-4-oxo-5-(*S)-(4-(pyridin-3-yloxy)phen)-4,5-dihydro-3H-1-thia-3,5,8-triazaacenaphthylene-2-carboxamide] | 8.27 | 
2 | Cc1cc(Oc2ccccc2)ccc1N1C(=O)Nc2c(C(=O)N[C@@H]3CCC[C@H]3O)sc3nccc1c23 (single isomer, unassigned) [Example 4] |  | BTK_I_binding pIC50 [1]: 7.73
3 | Cc1cc(Oc2ccccc2)ccc1N1C(=O)Nc2c(C(=O)N[C@H]3CC[C@H](O)CC3)sc3nccc1c23 (single isomer, unassigned) [Example 85, N-((1R,4R)-4-Hydroxycyclohexyl)-5-(*S)-(2-methyl-4-phenoxyphenyl)-4-oxo-4,5-dihydro-3H-1-thia-3,5,8-triazaacenaphthylene-2-carboxamide] |  | IC50 (read-out: BTK_I_binding pIC50 (converted)): 21.4 nM
4 | C=CC(=O)NC1CCCC[C@H]1NC(=O)c1sc2nccc3c2c1NC(=O)N3c1cnc(OCC(C)C)cc1C (single isomer, unassigned) [Example 352, N-((1R,2S)-2-Acrylamidocyclohexyl)-5-(*R)-(6-isobutoxy-4-methylpyridin-3-yl)-4-oxo-4,5-dihydro-3H-1-thia-3,5,8-triazaacenaphthylene-2-carboxamide] | <6 | 
5 | CCC(=O)N[C@H]1CCC[C@H]1NC(=O)c1sc2nccc3c2c1NC(=O)N3c1ccc(Oc2ccccc2)nc1C (single isomer, unassigned) [Example 353, 5-(*S)-(2-Methyl-6-phenoxypyridin-3-yl)-4-oxo-N-((1R,2R)-2-propionamidocyclopentyl)-4,5-dihydro-3H-1-thia-3,5,8-triazaacenaphthylene-2-carboxamide] | <6 | 
6 | C=CC(=O)N[C@H]1CCCC[C@H]1NC(=O)c1sc2nccc3c2c1NC(=O)N3c1cnc(CC(C)C)cc1C (single isomer, unassigned) [Example 357, N-((1R,2S)-2-Acrylamidocyclohexyl)-5-(*S)-(6-isobutyl-4-methylpyridin-3-yl)-4-oxo-4,5-dihydro-3H-1-thia-3,5,8-triazaacenaphthylene-2-carboxamide] | 7.98 | 
7 | Cc1cc(Oc2ccccc2)ccc1N1C(=O)Nc2c(C(=O)N[C@H]3CCCC[C@@H]3NC=O)sc3nccc1c23 [Example 54, N-((1S,2S)-2-Formamidocyclohexyl)-5-(2-methyl-4-phenoxyphenyl)-4-oxo-4,5-dihydro-3H-1-thia-3,5,8-triazaacenaphthylene-2-carboxamide] |  | BTK_I_binding pIC50 [1]: 5.90
